Source: patent publication US4175081A, “5-Substituted thiadiazole ureas” (priority 1977, dated 1979)

Experiments:
Bean (BN) [1] = experiment: Pre-emergence herbicide test; format: in vivo, Phaseolus vulgaris var. Black Valentine; details: Phaseolus vulgaris, 336 h, two weeks after treatment
In short: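 Black Valentine bean was seeded in potting soil one day before spraying. Compound was applied pre-emergence at 8 lbs/acre (also 4 lbs/acre) in 38 gallons per acre. Plants were sub-irrigated and injury or control was rated visually after two weeks.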

Amaranth pigweed (PW) = experiment: Pre-emergence herbicide test; format: in vivo, Amaranthus retroflexus; details: 336 h, two weeks after treatment
Procedure: All crop and weed species were planted individually in 3' plastic pots containing potting soil. Four seeds each of corn, cotton, and snapbeans were seeded to a depth equal to the diameter of the seed. All other species were surface seeded and sprinkled with screened soil in an amount sufficient to cover the seed. Immediately after planting, all pots were watered by sub-irrigation in greenhouse trays. Pots for the pre-emergence phase were seeded one day before treatment.
Compounds were tested at rates of application equivalent to 8 lbs. of actual compound per acre in a spray volume of 38 gallons per acre. Spray hood constants required to deliver the above volume are as follows:
Formulations for spray applications were prepared in 50 ml volumes with the following three components:
Formulations for the 4 lbs/acre rate were prepared by adjusting the amount of active ingredient accordingly.
Spray applications were made in a hood containing a removable belt and fixed spray nozzle. For passage through the spray hood, one pot of each specie (pre-emergence phase) was placed on the rear half of the flat. Treatments were removed to the greenhouse after spraying. Watering during the observation period was done only by sub-irrigation.
Two weeks after treatment, pre- and post-emergence injury or control was visually rated, and the results were as shown in the following tables. Pre-emergence data are provided in TABLE III and post-emergence data are provided in TABLE IV, for compounds having the formula illustrated in TABLE I. Correspondingly, pre-emergence and post-emergence data, respectively, are set forth in TABLES V AND VI, for compounds having the formula illustrated in TABLE II.

Cotton (CT) [2] = experiment: Pre-emergence herbicide test; format: in vivo, Gossypium hirsutum var. DPL smooth leaf; details: Gossypium hirsutum, 336 h, two weeks after treatment
In short: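 Crop and weed species seeded one day before treatment, then sprayed pre-emergence at 8 lbs actual compound per acre (also 4 lbs/acre formulations) in 38 gallons per acre. Pots kept in greenhouse with sub-irrigation only; injury or control visually rated two weeks after treatment.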

Johnson grass (JG) = experiment: Pre-emergence herbicide test; format: in vivo, Sorgum helepense; details: Sorghum halepense, 336 h, two weeks after treatment
In short: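 Pots seeded one day before spraying; compound applied pre-emergence at 8 lbs/acre (or 4 lbs/acre) in 38 gallons/acre spray volume. Sub-irrigated in greenhouse; injury/control rated visually two weeks after treatment.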

Turnip (TP) [3] = experiment: Pre-emergence herbicide test; format: in vivo, Brassica sp.; details: Brassica rapa, pre-emergence, 336 h, two weeks after treatment
In short: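 Turnip (Brassica sp.) seeds were surface sown in 3' plastic pots of potting soil, covered with a thin layer of screened soil, and sub-irrigated in greenhouse trays. Pots were seeded one day ahead of treatment, sprayed pre-emergence under a hood with a fixed nozzle and moving belt, then kept in the greenhouse.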

Bean (BN) [4] = experiment: Post-emergence herbicide test; format: in vivo, Phaseolus vulgaris var. Black Valentine; details: Phaseolus vulgaris, post-emergence, 336 h, two weeks after treatment
In short: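 Snapbean (Phaseolus vulgaris var. Black Valentine) was tested post-emergence. Four seeds were sown in 3' plastic pots of potting soil at a depth equal to the seed diameter, then sub-irrigated in greenhouse trays. Planting dates were staggered so plants were sprayed once primary leaves had expanded, with the growing point at the primary leaf nodes.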

Corn (CN) = experiment: Pre-emergence herbicide test; format: in vivo; details: Zea mays, 336 h, two weeks after treatment
In short: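 Four corn seeds per pot, sown at seed-diameter depth one day before spraying, got soil surface treatment at 8 lbs/acre (4 lbs/acre formulations also prepared) in 38 gallons/acre. Pots were greenhouse-held with sub-irrigation only. Injury or control was scored visually two weeks after treatment.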

Cotton (CT) [5] = experiment: Post-emergence herbicide test; format: in vivo, Gossypium hirsutum var. DPL smooth leaf; details: Gossypium hirsutum, post-emergence, 336 h, two weeks after treatment
In short: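 Cotton (Gossypium hirsutum var. DPL smooth leaf) was grown in 3' plastic pots of potting soil, four seeds per pot, planted at a depth equal to the seed diameter and watered by sub-irrigation. At the stage of expanded cotyledons with the first true leaf 1' long, plants were sprayed post-emergence in a hood with a fixed nozzle over a moving belt. Percent control was rated visually two weeks later.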

Barnyard grass (BG) = experiment: Pre-emergence herbicide test; format: in vivo; details: Echinochloa crus-galli, 336 h, two weeks after treatment
In short: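 Barnyard grass surface-seeded in potting soil and sprayed pre-emergence one day after seeding, at 8 or 4 lb compound/acre in 38 gal/acre spray volume. Pots kept in greenhouse with sub-irrigation only; injury or control rated visually two weeks after treatment.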

Turnip (TP) [6] = experiment: Post-emergence herbicide test; format: in vivo, Brassica sp.; details: Brassica rapa, post-emergence, 336 h, two weeks after treatment
In short: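 A greenhouse post-emergence herbicide test on turnip. Seeds were sown on the surface of potting soil in 3' plastic pots, lightly covered with screened soil and watered from below. Planting was timed so seedlings had 1 or 2 true leaves above the cotyledons at spraying, done in a hood with a fixed nozzle. Control or injury was scored by eye after two weeks.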

Crabgrass (CG) [7] = experiment: Post-emergence herbicide test; format: in vivo, Digitaria sanquinalis; details: Digitaria sanguinalis, post-emergence, 336 h, two weeks after treatment
In short: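 Crabgrass (Digitaria sanquinalis) was surface seeded individually in 3' plastic pots of potting soil, covered with screened soil, and watered by sub-irrigation in greenhouse trays. Planting was staggered so seedlings reached the target stage together. Post-emergence sprays were applied in a hood with a removable belt and fixed nozzle, and control was visually rated two weeks after treatment.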

Crabgrass (CG) [8] = experiment: Pre-emergence herbicide test; format: in vivo, Digitaria sanquinalis; details: Digitaria sanguinalis, pre-emergence, 336 h, two weeks after treatment
In short: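 Crabgrass (Digitaria sanquinalis) was surface seeded in 3' plastic pots of potting soil, covered with screened soil, and watered by sub-irrigation in greenhouse trays. Pots were seeded one day before spraying in a hood with a moving belt and fixed nozzle. Plants stayed in the greenhouse on sub-irrigation, and pre-emergence control was rated visually two weeks after treatment.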

Compound: CCCCS(=O)(=O)c1nnc(N(C)C(=O)NC)s1 [Example 92]
- pest or weed control at 560.425 g/ha (Bean (BN) [1]; 0.5 lb/acre): 10%
- pest or weed control at 1120.85 g/ha (Bean (BN) [1]; 1 lb/acre): 10%
- pest or weed control at 2241.7 g/ha (Bean (BN) [1]; 2 lb/acre): 10%
- pest or weed control at 4483.4 g/ha (Bean (BN) [1]; 4 lb/acre): 10%
- pest or weed control at 560.425 g/ha (Amaranth pigweed (PW); 0.5 lb/acre): 10%
- pest or weed control at 1120.85 g/ha (Amaranth pigweed (PW); 1 lb/acre): 10%
- pest or weed control at 2241.7 g/ha (Amaranth pigweed (PW); 2 lb/acre): 30%
- pest or weed control at 4483.4 g/ha (Amaranth pigweed (PW); 4 lb/acre): 50%
- pest or weed control at 560.425 g/ha (Cotton (CT) [2]; 0.5 lb/acre): 10%
- pest or weed control at 1120.85 g/ha (Cotton (CT) [2]; 1 lb/acre): 10%
- pest or weed control at 2241.7 g/ha (Cotton (CT) [2]; 2 lb/acre): 10%
- pest or weed control at 4483.4 g/ha (Cotton (CT) [2]; 4 lb/acre): 10%
- pest or weed control at 560.425 g/ha (Johnson grass (JG); 0.5 lb/acre): 10%
- pest or weed control at 1120.85 g/ha (Johnson grass (JG); 1 lb/acre): 10%
- pest or weed control at 2241.7 g/ha (Johnson grass (JG); 2 lb/acre): 30%
- pest or weed control at 4483.4 g/ha (Johnson grass (JG); 4 lb/acre): 60%
- pest or weed control at 560.425 g/ha (Turnip (TP) [3]; 0.5 lb/acre): 10%
- pest or weed control at 1120.85 g/ha (Turnip (TP) [3]; 1 lb/acre): 60%
- pest or weed control at 2241.7 g/ha (Turnip (TP) [3]; 2 lb/acre): 90%
- pest or weed control at 4483.4 g/ha (Turnip (TP) [3]; 4 lb/acre): 90%
- pest or weed control at 560.425 g/ha (Bean (BN) [4]; 0.5 lb/acre): 70%
- pest or weed control at 1120.85 g/ha (Bean (BN) [4]; 1 lb/acre): 80%
- pest or weed control at 2241.7 g/ha (Bean (BN) [4]; 2 lb/acre): 90%
- pest or weed control at 4483.4 g/ha (Bean (BN) [4]; 4 lb/acre): 100%
- pest or weed control at 560.425 g/ha (Corn (CN); 0.5 lb/acre): 10%
- pest or weed control at 1120.85 g/ha (Corn (CN); 1 lb/acre): 10%
- pest or weed control at 2241.7 g/ha (Corn (CN); 2 lb/acre): 10%
- pest or weed control at 4483.4 g/ha (Corn (CN); 4 lb/acre): 10%
- pest or weed control at 560.425 g/ha (Cotton (CT) [5]; 0.5 lb/acre): 100%
- pest or weed control at 1120.85 g/ha (Cotton (CT) [5]; 1 lb/acre): 100%
- pest or weed control at 2241.7 g/ha (Cotton (CT) [5]; 2 lb/acre): 100%
- pest or weed control at 4483.4 g/ha (Cotton (CT) [5]; 4 lb/acre): 100%
- pest or weed control at 560.425 g/ha (Barnyard grass (BG); 0.5 lb/acre): 10%
- pest or weed control at 1120.85 g/ha (Barnyard grass (BG); 1 lb/acre): 50%
- pest or weed control at 2241.7 g/ha (Barnyard grass (BG); 2 lb/acre): 70%
- pest or weed control at 4483.4 g/ha (Barnyard grass (BG); 4 lb/acre): 90%
- pest or weed control at 560.425 g/ha (Turnip (TP) [6]; 0.5 lb/acre): 100%
- pest or weed control at 1120.85 g/ha (Turnip (TP) [6]; 1 lb/acre): 100%
- pest or weed control at 2241.7 g/ha (Turnip (TP) [6]; 2 lb/acre): 100%
- pest or weed control at 4483.4 g/ha (Turnip (TP) [6]; 4 lb/acre): 100%
- pest or weed control at 560.425 g/ha (Crabgrass (CG) [7]; 0.5 lb/acre): 30%
- pest or weed control at 1120.85 g/ha (Crabgrass (CG) [7]; 1 lb/acre): 30%
- pest or weed control (Crabgrass (CG) [7]; 2 lb/acre): 90%
- pest or weed control at 4483.4 g/ha (Crabgrass (CG) [7]; 4 lb/acre): 90%
- pest or weed control at 560.425 g/ha (Crabgrass (CG) [8]; 0.5 lb/acre): 40%
- pest or weed control at 1120.85 g/ha (Crabgrass (CG) [8]; 1 lb/acre): 60%
- pest or weed control at 2241.7 g/ha (Crabgrass (CG) [8]; 2 lb/acre): 100%
- pest or weed control at 4483.4 g/ha (Crabgrass (CG) [8]; 4 lb/acre): 100%
